Experimental findings from PMC9501280, “Anti-Inflammatory Activity of Soluble Epoxide Hydrolase Inhibitors Based on Selenoureas Bearing an Adamantane Moiety” (International Journal of Molecular Sciences, 2022) are described below.

Series [1] concerns LPS-stimulated C57bl/6j peritoneal macrophages. As to the kind of experiment: Suppression of NO synthesis in LPS-stimulated peritoneal macrophages (Griess). Format: cell-based, mice. The text has this:
For screening designed compounds according to their probable ability to limit inflammation, we used a test on the inhibition of LPS-induced activation of primary murine macrophages. The most prominent anti-inflammatory activity, defined as the suppression of nitric oxide synthesis by LPS-stimulated macrophages, was evident for compounds 4a and 5b. At the same time, for 4a, the cytotoxic concentration was 4.7–18.4 times higher than the effective anti-inflammatory concentration. […] According to the data obtained, there is no direct correlation between the efficiency of the inhibition of sEH and NO synthesis, which requires further studies of the anti-inflammatory activity of the investigated compounds.
Peritoneal macrophages (PM) were isolated from the peritoneal exudate of 30 male C57bl/6j mice. To accumulate PM, 1 mL of 3% peptone solution was injected intraperitoneally. After 3 days, the mice were euthanized by cervical dislocation. Cells of peritoneal exudate were obtained by aseptic washing of the abdominal cavity with 5 mL of sterile Hanks’s solution (+4–6 °C) without calcium and magnesium ions. The total number and viability of cells were assessed in a Goryaev counting chamber (Russia) with a 0.4% trypan blue staining (Sigma-Aldrich, St. Louis, MO, USA). The cell concentration was adjusted to 1.0 × 10^6 cells/mL in DMEM (Gibco) supplemented with 2 mM L-glutamine (Gibco), 10% heat-inactivated fetal bovine serum (BioClot, Passau, Germany), 100 U/mL penicillin and […] streptomycin (Gibco) and plated 200 μL/well in 96-well transparent plates (SPL Life Sciences Co., Ltd., Pochon, Korea). After 2 h at 37 °C in a humidified atmosphere with 5% CO2, wells were washed to remove nonadherent cells. After 24 h of incubation, 20 μL of the supernatants were substituted with 20 μL of solutions of the test compounds, followed with E. coli O127:B8 LPS (100 ng/mL final concentration) after 30 min. Experiments were run in 3 independent replicates.
The accumulation of nitrite anion (a stable decomposition product of NO produced by iNOS) in the supernatants was determined using a standard Griess reagent. Briefly, 50 μL of supernatants collected 22 h after incubation of PM with the test and control compounds were mixed with 50 μL of 1% sulfonamide in 2.5% H3PO4 and 50 μL of 0.1% N-(1-naphthyl) ethylenediamine in 2.5% H3PO4. After incubation at 23 °C for 10 min. in an orbital shaker, the optical density was determined at a wavelength of 550 nm with a microplate reader Infinite M200 PRO (Tecan, Austria).
On the technique in general: Nitrite, measured by Griess reagent, commonly stands in for NO production.

Another series has as its system E. coli MG1655 pOxyR-lux. The format is cell-based, Escherichia coli. The following applies: compounds 1 μM to 1 mM; Standard = hydrogen peroxide 100 μM. Here is the method: (§1) The study was carried out with use of the following whole-cell bacterial biosensors: Escherichia coli MG1655 pOxyR-lux, E. coli MG1655 pDps, E. coli MG1655 pSoxS-lux, E. coli MG1655 pColD-lux, E. coli MG1655 pAlkA-lux, E. coli MG1655 pXen7, Bacillus subtilis 168 pNK-AlkA, B. subtilis 168 pNK-MrgA and B. subtilis 168 pNK-DinC. These biosensors by the quantitation of bacterial stress promoters’ activity, make it possible to determine oxidative stress caused by hydrogen peroxide and the superoxide anion radical, SOS response, DNA alkylation, or general toxicity in Gram-positive and Gram-negative B. subtilis and E. coli cells. We used concentrations from 1 μM to 1 mM of the studied compounds added to the suspension of biosensor cells.
(§2) pColD-lux―PcolD is induced by the SOS response; pDps―Pdps is activated in the presence of DNA-oxidizing agents; pSoxS-lux―PSoxS is induced in the presence of superoxide anion radicals; pOxyR-lux―PoxyR is induced in response to the appearance of hydrogen peroxide or organic peroxides; pAlkA-lux―PalkA is induced in response to DNA alkylation. pXen7 contains P. luminescens ZM1 lux genes controlled by its own promoter, which was used as a constitutive.
(§3) The bioluminescence of cells was measured using a Synergy HT luminometer (Biotek, Winooski, VT, USA) at room temperature. Lux biosensors based on E. coli were grown to an early logarithmic phase (OD ≈ 0.1) to achieve a background luminescence approximately 100–1000 RLU at the beginning of the measurements. Lux biosensors based on B. subtilis were grown to a logarithmic phase with an optical density OD ≈ 0.6 (and background luminescence of about 10–500 RLU). Biosensor cell cultures were divided into portions of 200 μL in a 96-well plate. Control toxicants and studied compounds were added to the cell suspension at 2 µL per well. Mitomycin C (at final concentration of 30 μM) for biosensors induced by the SOS response (PcolD and PdinC); methyl methanesulfonate (1 mM) for biosensors induced by DNA alkylation (PalkA); hydrogen peroxide (100 μM) for biosensors induced by presence of peroxides (PoxyR, Pdps and PmrgA) and methyl viologen (100 μM) for PsoxS activation by the presence of superoxide anion radicals. The kinetics of change in luminescence was measured at room temperature.
(§4) To unify the obtained results and eliminate the differences between the experiments due to different initial luminescence values, the luminescence value in each sample was normalized to the initial value according to Equation (1): (1) Lnorm(t, x)=L(t, x)/L(0, x) where Lnorm(t,x)—luminescence normalized to the initial value for the sample x, L(t,x) is the luminescence of sample x at time t and L(0,x) is the initial luminescence of sample x (immediately after addition of the studied compound or control toxicant). This normalization considers the optical density of the studied compound and the luminescence shielding caused by it, which appears immediately after the addition and facilitates the analysis of a slower effect associated with the general toxicity and activation of stress-inducible promoters for which the typical time of activation is in a range from several minutes to 3 h.
(§5) To determine the luminescence induction coefficient of biosensor cells, observed due to changes in the level of reporter genes transcription, the following equation was used:(2) Kind(t, x)=Lnorm(t, x)/Lnorm(t, contr) where Kind(t) is the calculated luminescence induction coefficient of biosensor cells in sample x at time point t, and Lnorm(t,contr) is the normalized luminescence in the control sample of the same biosensor cells without the addition of the studied compounds.

For another series, the system named is E. coli MG1655 pAlkA-lux. Format: cell-based, Escherichia coli. Conditions: compounds 1 μM to 1 mM; Standard = methyl methanesulfonate 1 mM. How it is done:
as §1, §2, §3, §4, §5

The next series relates to E. coli MG1655 pDps. Format: cell-based, Escherichia coli. Conditions: compounds 1 μM to 1 mM; Standard = hydrogen peroxide 100 μM. How it is done: as §1, §2, §3, §4, §5
The subject of another series is E. coli MG1655 pColD-lux. Format: cell-based, Escherichia coli. The following applies: compounds 1 μM to 1 mM; Standard = Mitomycin C 30 μM. Here is the method:
as §1, §2, §3, §4, §5

The next series has as its system E. coli MG1655 pSoxS-lux. As to the kind of experiment: Lux-biosensor, superoxide anion radicals (PsoxS). Format: cell-based, Escherichia coli. The following applies: compounds 1 μM to 1 mM; Standard = methyl viologen 100 μM. Here is the method: as §1, with “biosensor cells. […]” for “biosensor cells.”
The bioluminescence of cells was measured using a Synergy HT luminometer (Biotek, Winooski, VT, USA) at room temperature. Lux biosensors based on E. coli were grown to an early logarithmic phase (OD ≈ 0.1) to achieve a background luminescence approximately 100–1000 RLU at the beginning of the measurements. Lux biosensors based on B. subtilis were grown to a logarithmic phase with an optical density OD ≈ 0.6 (and background luminescence of about 10–500 RLU). […] The kinetics of change in luminescence was measured at room temperature. […]

For the molecule `[Se]=C(Nc1ccccc1)NC1C2CC3CC(C2)CC1C3` (stereo not shown) [4g, 1-(Adamantan-2-yl)-3-phenylselenourea], in series [1] (LPS-stimulated macrophages), the “NO synthesis inhibition (in words)” value is listed as “able to inhibit sEH but not NO synthesis”. Moreover, in the series on E. coli MG1655 pOxyR-lux, the “max(Kind), E. coli MG1655 pOxyR-lux” value was 1.12 ± 0.16. Besides, in the series on E. coli MG1655 pAlkA-lux, the “max(Kind), E. coli MG1655 pAlkA-lux” value came out at 1.05 ± 0.30. For the same molecule, the “max(Kind), E. coli MG1655 pDps” value in the series on E. coli MG1655 pDps is recorded as 1.2 ± 0.4. Besides, the “max(Kind), E. coli MG1655 pColD-lux” value with E. coli MG1655 pColD-lux worked out at 1.26 ± 0.31. For the same molecule, in the series on E. coli MG1655 pSoxS-lux, the “max(Kind), E. coli MG1655 pSoxS-lux” value turned out to be 1.0 ± 0.1.
In general, IC50 refers to the midpoint of a concentration-inhibition curve. For `[Se]=C(Nc1ccccc1)NC12CC3CC(CC(C3)C1)C2` [4a, 1-(Adamantan-1-yl)-3-phenylselenourea], the “cytotoxic concentration versus effective anti-inflammatory concentration” value in series [1] (CC50 (MTT, LDH) over NO synthesis IC50, peritoneal macrophages) was 4.7–18.4 times. In addition, the IC50 in series [1] (Mus musculus, Peritoneal macrophage, 22 h, read-out: NO Synthesis, IC50 ± SE) is 1600 ± 200 nM. The “max(Kind), E. coli MG1655 pOxyR-lux” value with E. coli MG1655 pOxyR-lux was 2.62 ± 0.7. In the series with E. coli MG1655 pAlkA-lux, the “max(Kind), E. coli MG1655 pAlkA-lux” value came to 1.15 ± 0.33. Also, the “max(Kind), E. coli MG1655 pDps” value in the series with E. coli MG1655 pDps came out at 1.15 ± 0.25. In the series with E. coli MG1655 pColD-lux, the “max(Kind), E. coli MG1655 pColD-lux” value was 1.5 ± 0.6. Also, the “max(Kind), E. coli MG1655 pSoxS-lux” value in the series with E. coli MG1655 pSoxS-lux turned out to be 1.16 ± 0.19.
